For assay [1], the target named is T1, α1β2γ2L (Mus musculus, UniProt P22723+P62812+P63137).
T1 construct: gene Gabra1; full-length subunits in pRK5, co-expressed 1:1:1 in HEK cells; heteropentamer; with Gamma-aminobutyric acid receptor subunit gamma-2
In words: whole-cell patch clamp, HEK cells. It counts as cell-based. The settings on record: GABA EC100 (1 mM), PTX pre-applied then co-applied; text calls it picrotoxin, reagent list picrotoxinin. A general note: Patch clamp records ionic current or voltage across a cell membrane.

The target in assay [2] is T2, α3β2γ2L (Mus musculus, UniProt P22723+P26049+P63137).
T2 construct: gene Gabra3; full-length subunits in pRK5, co-expressed in HEK cells; heteropentamer; with Gamma-aminobutyric acid receptor subunit gamma-2
Put plainly: whole-cell patch clamp, HEK cells, Hill fit. Format: cell-based. From the text: whole-cell patch clamp, HEK cells, Hill fit on α3β2γ2L

Assay [3] has as its target T3, α6β2δ (Mus musculus, UniProt P16305+P22933+P63137).
T3 construct: gene Gabra6; full-length subunits in pRK5, co-expressed in HEK cells; heteropentamer; with Gamma-aminobutyric acid receptor subunit delta
In words: whole-cell patch clamp, HEK cells, Hill fit. Format: cell-based. From the text: whole-cell patch clamp, HEK cells, Hill fit on α6β2δ

Another assay addresses T4, α1β2 (Mus musculus, UniProt P62812+P63137).
T4 construct: gene Gabra1; full-length subunits in pRK5, co-expressed in HEK cells; heteropentamer without gamma
Put plainly: whole-cell patch clamp, HEK cells. The following applies: read-out: PS IC50. Format: cell-based. The text has this: whole-cell patch clamp, HEK cells on α1β2

The target of assay [4] is T1, α1β2γ2L. In words: whole-cell patch clamp, HEK cells. Format: cell-based. The following applies: read-out: PS IC50. From the text: whole-cell patch clamp, HEK cells on α1β2γ2L
The next assay concerns the target T5, α4β2δ (Mus musculus, UniProt P22933+P63137+Q9D6F4).
T5 construct: gene Gabra4; full-length subunits in pRK5, co-expressed in HEK cells; heteropentamer; with Gamma-aminobutyric acid receptor subunit delta
In words: whole-cell patch clamp, HEK cells. The following applies: read-out: PS IC50. It counts as cell-based. From the text:
whole-cell patch clamp, HEK cells on α4β2δ

In assay [5] the target is T2, α3β2γ2L. In words: whole-cell patch clamp, HEK cells. The following applies: read-out: PS IC50. It counts as cell-based. From the text: whole-cell patch clamp, HEK cells on α3β2γ2L
For assay [6], the target named is T3, α6β2δ. In words: whole-cell patch clamp, HEK cells. It counts as cell-based. The following applies: read-out: PS IC50. From the text: whole-cell patch clamp, HEK cells on α6β2δ
Another assay concerns the target T6, β3 homomer (Mus musculus, UniProt P63080).
T6 construct: gene Gabrb3; full-length subunit in pRK5, HEK cells; homopentamer
Put plainly: whole-cell patch clamp, HEK cells. It counts as cell-based. The following applies: 100 μM PS co-applied with 500 μM pentobarbitone.

The target in assay [7] is T7, α1β2γ2L (Mus musculus, UniProt P22723+P62812+P63137, P62812:V283S).
T7 construct: gene Gabra1; full-length subunits in pRK5, co-expressed 1:1:1 in HEK cells; heteropentamer; with Gamma-aminobutyric acid receptor subunit gamma-2
In words: whole-cell patch clamp, HEK cells. It counts as cell-based.

Assay [8] concerns the target T8, ρ1 (Homo sapiens, UniProt P24046, P315V).
T8 construct: gene GABRR1; full-length subunit in pRK5, HEK cells; homopentamer
In words: whole-cell patch clamp, HEK cells. Format: cell-based.

A further assay relates to T9, ρ1-260-γ2S.
T9 construct: gene GABRR1; single-chain fusion: human rho1 ECD to residue 260, mouse gamma2S TMD; homopentamer in HEK cells
In words: whole-cell patch clamp, HEK cells. Format: cell-based, Homo sapiens; Mus musculus. The following applies: co-applied with GABA EC80 (200 μM).

In assay [9] the target is T10, ρ1 (Homo sapiens, UniProt P24046).
T10 construct: gene GABRR1; full-length subunit in pRK5, HEK cells; homopentamer
In words: whole-cell patch clamp, HEK cells. It counts as cell-based. The settings on record: read-out: PS IC50. From the text:
whole-cell patch clamp, HEK cells on ρ1

For the next assay, the target named is T11, α2β2γ2L (Mus musculus, UniProt P22723+P26048+P63137).
T11 construct: gene Gabra2; full-length subunits in pRK5, co-expressed in HEK cells; heteropentamer; with Gamma-aminobutyric acid receptor subunit gamma-2
Put plainly: whole-cell patch clamp, HEK cells. Format: cell-based. The following applies: read-out: PS IC50. From the text:
whole-cell patch clamp, HEK cells on α2β2γ2L

Another assay deals with T12, α5β2γ2L (Mus musculus, UniProt P22723+P63137+Q8BHJ7).
T12 construct: gene Gabra5; full-length subunits in pRK5, co-expressed in HEK cells; heteropentamer; with Gamma-aminobutyric acid receptor subunit gamma-2
In words: whole-cell patch clamp, HEK cells. It counts as cell-based. The following applies: read-out: PS IC50. From the text:
whole-cell patch clamp, HEK cells on α5β2γ2L

For another assay, the target named is T13, α1β3γ2L (Mus musculus, UniProt P22723+P62812+P63080).
T13 construct: gene Gabra1; full-length subunits in pRK5, co-expressed in HEK cells; heteropentamer; with Gamma-aminobutyric acid receptor subunit gamma-2
In words: whole-cell patch clamp, HEK cells. Format: cell-based. The following applies: read-out: PS IC50. The text has this:
whole-cell patch clamp, HEK cells on α1β3γ2L

The test system of a further assay is T14, ρ1-260-α1.
T14 construct: gene GABRR1; single-chain fusion: human rho1 ECD to residue 260 (start of M1), mouse alpha1 TMD with linkers; homopentamer in HEK cells
Put plainly: whole-cell patch clamp, HEK cells. Format: cell-based, Homo sapiens; Mus musculus. The settings on record: steady-state current, co-applied with GABA EC80 (30 μM), pH 7.4, room temperature.

T2 sequence (P26049 29-492): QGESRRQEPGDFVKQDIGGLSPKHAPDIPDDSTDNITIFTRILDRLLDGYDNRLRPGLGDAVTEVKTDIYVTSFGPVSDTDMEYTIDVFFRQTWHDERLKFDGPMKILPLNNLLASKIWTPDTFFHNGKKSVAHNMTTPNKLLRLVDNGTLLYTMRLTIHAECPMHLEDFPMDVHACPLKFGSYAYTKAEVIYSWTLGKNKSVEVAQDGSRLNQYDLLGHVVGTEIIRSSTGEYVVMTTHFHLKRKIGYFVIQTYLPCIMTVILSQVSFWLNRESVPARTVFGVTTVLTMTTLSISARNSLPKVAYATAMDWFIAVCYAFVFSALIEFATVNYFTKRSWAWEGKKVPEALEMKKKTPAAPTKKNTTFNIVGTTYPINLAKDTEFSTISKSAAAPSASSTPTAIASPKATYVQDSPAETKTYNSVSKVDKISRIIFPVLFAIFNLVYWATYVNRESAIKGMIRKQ
T2 sequence (P63137 26-512): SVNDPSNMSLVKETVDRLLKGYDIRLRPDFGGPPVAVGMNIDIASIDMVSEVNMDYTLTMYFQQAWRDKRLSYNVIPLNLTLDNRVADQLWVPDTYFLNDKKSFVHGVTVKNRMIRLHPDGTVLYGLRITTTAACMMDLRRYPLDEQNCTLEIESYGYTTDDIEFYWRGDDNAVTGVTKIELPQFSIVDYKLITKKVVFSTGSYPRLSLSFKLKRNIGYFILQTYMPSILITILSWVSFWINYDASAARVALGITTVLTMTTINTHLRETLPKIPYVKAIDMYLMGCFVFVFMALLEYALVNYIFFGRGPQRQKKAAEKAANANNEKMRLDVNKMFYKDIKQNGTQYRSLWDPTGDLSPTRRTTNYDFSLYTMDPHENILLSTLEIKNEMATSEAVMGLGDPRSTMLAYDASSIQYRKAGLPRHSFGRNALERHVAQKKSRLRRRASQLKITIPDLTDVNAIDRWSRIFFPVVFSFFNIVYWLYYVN
T2 sequence (P22723 39-474): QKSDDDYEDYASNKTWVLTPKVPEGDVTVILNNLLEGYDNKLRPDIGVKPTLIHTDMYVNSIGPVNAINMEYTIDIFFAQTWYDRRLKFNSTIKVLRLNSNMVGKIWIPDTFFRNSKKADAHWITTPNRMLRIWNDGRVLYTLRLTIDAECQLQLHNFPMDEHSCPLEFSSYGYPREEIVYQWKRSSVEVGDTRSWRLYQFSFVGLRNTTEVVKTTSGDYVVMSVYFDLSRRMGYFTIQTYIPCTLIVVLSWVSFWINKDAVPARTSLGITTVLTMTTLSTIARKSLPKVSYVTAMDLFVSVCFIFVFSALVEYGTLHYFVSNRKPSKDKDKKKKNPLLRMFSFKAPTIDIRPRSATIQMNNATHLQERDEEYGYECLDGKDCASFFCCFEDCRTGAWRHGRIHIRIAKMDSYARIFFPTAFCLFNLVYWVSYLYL
T1 sequence (P62812 28-455): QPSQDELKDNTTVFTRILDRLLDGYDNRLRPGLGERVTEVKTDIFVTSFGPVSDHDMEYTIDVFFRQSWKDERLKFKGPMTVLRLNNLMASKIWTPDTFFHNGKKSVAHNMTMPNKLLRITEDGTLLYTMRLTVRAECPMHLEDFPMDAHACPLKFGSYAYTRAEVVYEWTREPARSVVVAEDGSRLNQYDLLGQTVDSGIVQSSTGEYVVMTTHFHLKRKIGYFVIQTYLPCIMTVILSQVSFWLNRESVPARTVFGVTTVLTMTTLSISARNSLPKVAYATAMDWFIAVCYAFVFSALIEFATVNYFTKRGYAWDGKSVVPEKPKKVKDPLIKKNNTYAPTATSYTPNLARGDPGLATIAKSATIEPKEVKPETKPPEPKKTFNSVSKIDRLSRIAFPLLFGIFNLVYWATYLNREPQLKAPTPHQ
T1 sequence (P63137 26-512): as the sequence (P63137 26-512) above
T1 sequence (P22723 39-474): as the sequence (P22723 39-474) above
T3 sequence (P16305 20-453): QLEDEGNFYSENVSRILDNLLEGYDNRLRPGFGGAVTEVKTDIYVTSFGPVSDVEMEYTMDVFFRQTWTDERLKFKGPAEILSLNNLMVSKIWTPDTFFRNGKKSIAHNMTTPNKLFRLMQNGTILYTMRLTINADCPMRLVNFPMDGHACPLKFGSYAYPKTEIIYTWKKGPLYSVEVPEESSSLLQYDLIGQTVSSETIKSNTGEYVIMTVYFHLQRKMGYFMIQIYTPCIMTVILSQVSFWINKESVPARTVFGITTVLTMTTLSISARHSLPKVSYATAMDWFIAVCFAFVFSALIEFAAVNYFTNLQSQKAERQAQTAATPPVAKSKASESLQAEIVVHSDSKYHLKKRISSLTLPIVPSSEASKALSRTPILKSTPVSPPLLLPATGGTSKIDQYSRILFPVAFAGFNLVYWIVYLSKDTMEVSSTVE
T3 sequence (P63137 26-512): as the sequence (P63137 26-512) above
T3 sequence (P22933 25-449): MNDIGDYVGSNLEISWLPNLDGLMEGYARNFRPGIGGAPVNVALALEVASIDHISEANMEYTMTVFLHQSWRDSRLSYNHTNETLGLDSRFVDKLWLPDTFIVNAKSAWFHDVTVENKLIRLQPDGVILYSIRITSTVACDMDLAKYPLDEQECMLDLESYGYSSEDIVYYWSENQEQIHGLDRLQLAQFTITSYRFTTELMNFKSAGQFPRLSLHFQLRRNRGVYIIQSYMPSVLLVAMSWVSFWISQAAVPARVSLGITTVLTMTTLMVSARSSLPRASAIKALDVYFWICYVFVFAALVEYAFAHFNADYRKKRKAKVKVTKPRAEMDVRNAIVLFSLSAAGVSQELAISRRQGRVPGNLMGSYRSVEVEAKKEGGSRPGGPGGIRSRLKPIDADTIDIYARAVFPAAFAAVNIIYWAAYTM
T5 sequence (Q9D6F4 36-552): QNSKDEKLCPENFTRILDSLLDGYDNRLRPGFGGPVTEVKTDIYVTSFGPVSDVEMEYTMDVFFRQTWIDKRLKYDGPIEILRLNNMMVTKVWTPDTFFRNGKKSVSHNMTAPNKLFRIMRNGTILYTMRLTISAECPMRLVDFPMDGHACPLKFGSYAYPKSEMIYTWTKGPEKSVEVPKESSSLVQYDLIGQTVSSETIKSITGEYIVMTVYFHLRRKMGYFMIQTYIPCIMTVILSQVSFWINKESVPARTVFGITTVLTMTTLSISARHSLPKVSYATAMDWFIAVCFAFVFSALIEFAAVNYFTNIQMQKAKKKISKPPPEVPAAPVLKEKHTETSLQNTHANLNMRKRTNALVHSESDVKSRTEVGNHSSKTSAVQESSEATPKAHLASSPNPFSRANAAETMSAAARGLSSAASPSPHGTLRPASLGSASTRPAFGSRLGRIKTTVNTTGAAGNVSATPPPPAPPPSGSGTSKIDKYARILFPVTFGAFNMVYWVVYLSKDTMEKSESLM
T5 sequence (P63137 26-512): as the sequence (P63137 26-512) above
T5 sequence (P22933 25-449): as the sequence (P22933 25-449) above
T10 sequence (P24046 22-479): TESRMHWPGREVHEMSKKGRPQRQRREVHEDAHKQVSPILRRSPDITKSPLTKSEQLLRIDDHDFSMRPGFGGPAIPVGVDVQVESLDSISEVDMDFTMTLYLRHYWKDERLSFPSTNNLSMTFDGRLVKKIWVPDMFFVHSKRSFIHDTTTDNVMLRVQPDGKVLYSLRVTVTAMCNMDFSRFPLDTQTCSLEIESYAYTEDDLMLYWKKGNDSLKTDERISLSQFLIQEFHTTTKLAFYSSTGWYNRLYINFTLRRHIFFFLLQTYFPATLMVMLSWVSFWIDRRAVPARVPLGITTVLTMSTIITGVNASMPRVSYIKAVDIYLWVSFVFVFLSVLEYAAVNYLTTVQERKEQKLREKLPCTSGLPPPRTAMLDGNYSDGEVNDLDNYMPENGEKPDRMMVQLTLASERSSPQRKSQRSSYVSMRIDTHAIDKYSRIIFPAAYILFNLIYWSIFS
T12 sequence (Q8BHJ7 26-463): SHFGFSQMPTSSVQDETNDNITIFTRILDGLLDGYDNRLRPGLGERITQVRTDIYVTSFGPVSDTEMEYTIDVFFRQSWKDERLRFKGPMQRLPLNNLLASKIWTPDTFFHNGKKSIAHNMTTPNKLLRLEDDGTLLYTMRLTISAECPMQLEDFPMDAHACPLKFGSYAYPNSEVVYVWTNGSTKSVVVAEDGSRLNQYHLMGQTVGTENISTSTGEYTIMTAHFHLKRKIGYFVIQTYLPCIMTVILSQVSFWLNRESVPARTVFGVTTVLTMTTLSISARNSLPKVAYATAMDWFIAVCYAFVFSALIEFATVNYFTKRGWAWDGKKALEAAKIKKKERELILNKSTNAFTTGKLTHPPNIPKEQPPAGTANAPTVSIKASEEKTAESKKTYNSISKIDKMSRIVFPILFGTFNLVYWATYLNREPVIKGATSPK
T12 sequence (P63137 26-512): as the sequence (P63137 26-512) above
T12 sequence (P22723 39-474): as the sequence (P22723 39-474) above
T8 sequence (P24046 22-479 P315V): as the sequence (P24046 22-479) above, with P294V counted along it
T6 sequence (P63080 26-473): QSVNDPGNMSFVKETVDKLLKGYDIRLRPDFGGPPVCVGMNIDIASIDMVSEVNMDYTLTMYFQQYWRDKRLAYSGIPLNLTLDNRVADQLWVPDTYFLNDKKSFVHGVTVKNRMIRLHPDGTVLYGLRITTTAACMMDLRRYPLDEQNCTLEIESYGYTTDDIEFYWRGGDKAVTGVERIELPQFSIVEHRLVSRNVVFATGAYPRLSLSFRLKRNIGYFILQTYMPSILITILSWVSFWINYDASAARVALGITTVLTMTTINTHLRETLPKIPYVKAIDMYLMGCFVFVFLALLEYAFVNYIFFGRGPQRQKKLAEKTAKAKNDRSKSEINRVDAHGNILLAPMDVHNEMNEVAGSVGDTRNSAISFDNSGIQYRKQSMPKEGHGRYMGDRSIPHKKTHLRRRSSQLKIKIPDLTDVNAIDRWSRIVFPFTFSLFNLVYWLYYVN

Take picrotoxinin: the “% of control peak current at 10 μM PTX” value at α1β2γ2L [1] turned out to be 37.3 ± 8.1%.
By EC50 is commonly meant the concentration at which the effect is half-maximal. A higher EC50 goes with a less potent agent. Take `NCCCC(=O)O` [GABA]: the EC50 at α3β2γ2L [2] was determined as 64600 ± 14300 nM; at α6β2δ [3], 200 ± 20 nM.
A word on the IC50: it is the concentration that gives 50% inhibition. For `CC(=O)[C@H]1CC[C@H]2[C@@H]3CC=C4C[C@@H](OS(=O)(=O)O)CC[C@]4(C)[C@H]3CC[C@]12C` [pregnenolone sulphate], the IC50 is 1300 ± 70 nM on α1β2; 400 ± 50 nM at α1β2γ2L [4]; 1300 ± 100 nM at α4β2δ; 600 ± 50 nM on α3β2γ2L [5]; 1300 ± 100 nM on α6β2δ [6]; 35500 ± 8200 nM on α1β2γ2L [7]. Further, the IC50 against ρ1 [8] is 6000 ± 600 nM; on ρ1 [9] it was greater than 300000 nM; at α2β2γ2L, 400 ± 50 nM; at α5β2γ2L it was 700 ± 100 nM; on α1β3γ2L, 1000 ± 80 nM; in the assay with ρ1-260-α1 it was 7900 ± 1700 nM. The “whole-cell patch clamp, HEK cells” value on β3 homomer was “neurosteroid caused a concentration-dependent block of the PB-induced peak current”. In the assay with ρ1-260-γ2S, the “% of control peak current at 100 μM PS” value is on record as 39.2 ± 5.1%.

Values taken from article PMC6018617, “Probing GABAA receptors with inhibitory neurosteroids” (Neuropharmacology, 2018).
